Source: ChEMBL document CHEMBL5608234, “Heat Shock Protein 90 Interactome-Mediated Proteolysis Targeting Chimera (HIM-PROTAC) Degrading Glutathione Peroxidase 4 to Trigger Ferroptosis” (J Med Chem, 2024)
The source made the active and inactive calls. No cut-off for these calls is given here.

Columns and labels:
HT-1080 [1] = experiment: HIM-PROTAC activity at GPX4/HSP90/E3 ligase in human HT-1080 cells assessed as reduction in GPX4 level at 1 uM incubated for 24 hrs by Western blotting analysis; format: cell-based; set-up: scale not given: the % may be the effect or the level left
HT-1080 [2] = experiment: Induction of ferroptosis in human HT-1080 cells assessed as increase in lipid peroxidation by measuring fluorescence intensity incubated for 12 hrs by C11-BODIPSY 581/591 staining based flow cytometry analysis; format: functional, cell-based; conditions: dose 0.1-3 µM
[3] = AUC(0 to t) in ICR mouse at 25 mg/kg, ip measured upto 24 hrs by LC-MS/MS analysis; format: ADME, organism-based; conditions: in vivo
HT-1080 [4] = experiment: Induction of ferroptosis in human HT-1080 cells assessed as increase in ROS level at 1 uM incubated for 24 hrs by DCFH-DA staining based confocal laser scanning microscopic analysis; format: functional, cell-based
HT-1080 [5] = experiment: HIM-PROTAC activity at GPX4/HSP90/E3 ligase in human HT-1080 cells assessed as reduction in GPX4 level at 1 uM incubated for 12 hrs by Western blotting analysis; format: cell-based
[6] = target: Heat shock protein HSP 90-alpha (Homo sapiens, UniProt P07900); experiment: Binding affinity to recombinant human HSP90alpha by SPR assay
HT-1080 [7] = experiment: Induction of ferroptosis in human HT-1080 cells assessed as reduction in mitochondrial crests at 1 uM incubated for 24 hrs by TEM analysis; format: functional, cell-based
[8] = AUCinfinity in ICR mouse at 25 mg/kg, ip measured upto 24 hrs by LC-MS/MS analysis; format: ADME, organism-based; conditions: in vivo
[9] = Toxicity in BALB/c mouse xenografted with human HT-1080 cells assessed as change in heart morphology at 25 to 50 mg/kg, ip administered once daily by H and E staining based assay; format: organism-based; conditions: in vivo, dose 25-50 mg/kg
4T1 = experiment: HIM-PROTAC activity at GPX4/HSP90/E3 ligase in […] cells assessed as reduction in GPX4 level at 0.1 to 3 uM incubated for 24 hrs by Western blotting analysis; format: cell-based; conditions: dose 0.1-3 µM
HT-1080 [10] = experiment: HIM-PROTAC activity at GPX4/HSP90/E3 ligase in human HT-1080 cells assessed as reduction in GPX4 level at 0.1 to 3 uM incubated for 24 hrs by Western blotting analysis; format: cell-based; conditions: dose 0.1-3 µM
HT-1080 [11] = experiment: Induction of ferroptosis in human HT-1080 cells assessed as appearance of autophagosome-like structures at 1 uM incubated for 24 hrs by TEM analysis; format: functional, cell-based
HT-1080 [12] = experiment: Upregulation of GPX4 protein level in human HT-1080 cells at 1 uM incubated for 4 hrs by Western blotting analysis; format: functional, cell-based
[13] = Toxicity in BALB/c mouse xenografted with human HT-1080 cells assessed as change in liver morphology at 25 to 50 mg/kg, ip administered once daily by H and E staining based assay; format: organism-based; conditions: in vivo, dose 25-50 mg/kg
B16-F10 = experiment: HIM-PROTAC activity at GPX4/HSP90/E3 ligase in mouse B16-F10 cells assessed as reduction in GPX4 level at 0.1 to 3 uM incubated for 24 hrs by Western blotting analysis; format: cell-based; conditions: dose 0.1-3 µM
Mus musculus [14] = experiment: Effect on HSP90 level in BALB/c mouse xenografted with human HT-1080 cells at 25 to 50 mg/kg, ip administered once daily by immunohistochemistry analysis; format: functional, organism-based; conditions: dose 25-50 mg/kg
HT-1080 [15] = experiment: Induction of ferroptosis in human HT-1080 cells assessed as broken mitochondrial outer membrane at 1 uM incubated for 24 hrs by TEM analysis; format: functional, cell-based
Mus musculus [16] = experiment: Downregulation of GPX4 protein level in BALB/c mouse tumor xenografted with human HT-1080 cells at 50 to 100 mg/kg, ip measured upto 36 hrs; format: functional, organism-based; conditions: dose 50-100 mg/kg
[17] = Half-life in ICR mouse at 25 mg/kg, ip measured upto 24 hrs by LC-MS/MS analysis; format: ADME, organism-based; conditions: in vivo
[18] = Toxicity in BALB/c mouse xenografted with human HT-1080 cells assessed as change in lung morphology at 25 to 50 mg/kg, ip administered once daily by H and E staining based assay; format: organism-based; conditions: in vivo, dose 25-50 mg/kg
HT-1080 [19] = experiment: HIM-PROTAC activity at GPX4/HSP90/E3 ligase in HSP90-knockdown human HT-1080 cells assessed as GPX4 degradation at 0.3 to 1 uM incubated for 24 hrs by Western blotting analysis; format: cell-based; conditions: dose 0.3-1 µM
HT-1080 [20] = experiment: Induction of ferroptosis in human HT-1080 cells assessed as increase in HMOX1 protein level after 24 hrs by Western blotting analysis; format: functional, cell-based; conditions: dose 0.1-3 µM
HT-1080 [21] = experiment: (§1) HIM-PROTAC activity at GPX4/HSP90/E3 ligase in human HT-1080 cells assessed as reduction in GPX4 level at 1 uM preincubated with MG132 for 2 hrs followed by compound addition and measured after 24 hrs by Western blotting analysis; format: cell-based
Mus musculus [22] = experiment: Upregulation of 4-HNE level in ip dosed BALB/c mouse xenografted with human HT-1080 cells administered once daily by immunohistochemistry analysis; format: functional, organism-based; conditions: dose 25-50 mg/kg
HT-1080 [23] = experiment: Cytotoxicity against human HT-1080 cells incubated for 48 hrs in presence of Fer-1 by CCK-8 assay; format: functional, cell-based; conditions: HT-1080, 48 h
[24] = Toxicity in BALB/c mouse xenografted with human HT-1080 cells assessed as change in spleen morphology at 25 to 50 mg/kg, ip administered once daily by H and E staining based assay; format: organism-based; conditions: in vivo, dose 25-50 mg/kg
HT-1080 [25] = experiment: as §1, with “2-chloro-N-(3-chloro-4-methoxyphenyl)-N-(2-oxo-2-(phenethylamino)-1-(thiophen-2-yl)ethyl)acetamide” for “MG132”; format: cell-based
Mus musculus [26] = experiment: Downregulation of GPX4 level in ip dosed BALB/c mouse xenografted with human HT-1080 cells administered once daily by immunohistochemistry analysis; format: functional, organism-based; conditions: dose 25-50 mg/kg
HT-1080 [27] = experiment: Induction of HSP90/GPX4 protein protein interaction in human HT-1080 cells assessed as ternary complex formation at 5 uM incubated for 12 hrs by co-immunoprecipitation method; format: cell-based; conditions: filed as activator
HT-1080 [28] = experiment: Induction of ferroptosis in human HT-1080 cells assessed as ruptured mitochondria at 1 uM incubated for 24 hrs by TEM analysis; format: functional, cell-based
[29] = Cmax in ICR mouse at 25 mg/kg, ip measured upto 24 hrs by LC-MS/MS analysis; format: ADME, organism-based; conditions: in vivo
HT-1080 [30] = experiment: Induction of ferroptosis in human HT-1080 cells assessed as increase in lipid peroxidation by measuring fluorescence intensity at 1 uM incubated for 12 hrs in presence of Fer-1 by C11-BODIPSY 581/591 staining based flow cytometry analysis; format: functional, cell-based
[31] = Toxicity in BALB/c mouse xenografted with human HT-1080 cells assessed as reduction in body weight at 25 to 50 mg/kg, ip administered once daily; format: organism-based; conditions: in vivo, dose 25-50 mg/kg
MDA-MB-231 = experiment: HIM-PROTAC activity at GPX4/HSP90/E3 ligase in human MDA-MB-231 cells assessed as reduction in GPX4 level at 0.1 to 3 uM incubated for 24 hrs by Western blotting analysis; format: cell-based; conditions: dose 0.1-3 µM

SMILES | Activity (HT-1080 [1]) [%] | Activity (HT-1080 [2]) | AUC(0-t) at 24 h [3] [ng·h/mL] | Activity (HT-1080 [4]) | Activity (HT-1080 [5]) | Kd [6] [µM] | Activity (HT-1080 [7]) | AUC(0-inf) [8] [ng·h/mL] | Activity [9] | Activity (4T1) | Activity (HT-1080 [10]) | Activity (HT-1080 [11]) | Activity (HT-1080 [12]) | Activity [13] | Activity (B16-F10) | Activity (Mus musculus [14]) | Activity (HT-1080 [15]) | Activity (Mus musculus [16]) | half-life [17] [h] | Activity [18] | also measured
COc1c(C)cnc(Cn2cnc3c(NCCC4CCN(C(=O)Cn5cc(COc6ccc(N(C(=O)CCl)C(C(=O)NCCc7ccccc7)c7cccs7)cc6Cl)nn5)CC4)nc(N)nc32)c1C (stereo not drawn) | 100 | Dose-Dependent Effect | 334 | Active | Active | 0.19 | Active | 346 | Non-Toxic | Active | Active | Active | Active | Non-Toxic | Active | inactive | Active | Active | 5 | Non-Toxic | Activity (HT-1080 [19]): inactive; Activity (HT-1080 [20]): Dose-Dependent Effect; Activity (HT-1080 [21]): inactive; Activity (Mus musculus [22]): Dose-Dependent Effect; IC50 (HT-1080 [23]): 35.5 µM; Activity [24]: Non-Toxic; Activity (HT-1080 [25]): inactive; Activity (Mus musculus [26]): Dose-Dependent Effect; Activity (HT-1080 [27]): Active; Activity (HT-1080 [28]): Active; Cmax [29]: 53.1 ng/mL; Activity (HT-1080 [30]): inactive; Activity [31]: Toxic; Activity (MDA-MB-231): inactive
COc1c(C)cnc(Cn2cnc3c(NCCOCCOCCOCCn4cc(COc5ccc(N(C(=O)CCl)C(C(=O)NCCc6ccccc6)c6cccs6)cc5Cl)nn4)nc(N)nc32)c1C (stereo not drawn) | 100 | Dose-Dependent Effect | 726 | Active | Active | 2.77 | Active | 1030 | Non-Toxic | Active | Active | Active | Active | Non-Toxic | Active | inactive | Active | Active | 5.5 | Non-Toxic | Activity (HT-1080 [19]): inactive; Activity (HT-1080 [20]): Dose-Dependent Effect; Activity (HT-1080 [21]): inactive; Activity (Mus musculus [22]): Dose-Dependent Effect; IC50 (HT-1080 [23]): 4.4 µM; Activity [24]: Non-Toxic; Activity (HT-1080 [25]): inactive; Activity (Mus musculus [26]): Dose-Dependent Effect; Activity (HT-1080 [27]): Active; Activity (HT-1080 [28]): Active; Cmax [29]: 139 ng/mL; Activity (HT-1080 [30]): inactive; Activity [31]: Toxic; Activity (MDA-MB-231): inactive
